# ChEMBL document CHEMBL5346941, “Design, synthesis and evaluation of novel monoamine oxidase B (MAO-B) inhibitors with improved pharmacokinetic properties for Parkinson's disease” (Eur J Med Chem, 2023)
# Legend:
# [1] = Drug concentration in Sprague-Dawley rat brain at 5 mg/kg, ip measured after 15 mins by LC-MS/MS analysis; type: ADME, organism-based; conditions: read-out: Ct
# [2] = Clearance in fasted Sprague-Dawley rat at 1 mg/kg, iv measured for 24 hrs; type: ADME, organism-based; conditions: in vivo
# [3] = Elimination half life in fasted ICR mouse at 2 mg/kg, iv measured for 24 hrs; type: ADME, organism-based; conditions: in vivo, read-out: beta t1/2 (converted)
# [4] = Drug concentration in Sprague-Dawley rat plasma at 5 mg/kg, ip measured after 120 mins by LC-MS/MS analysis; type: ADME, organism-based
# [5] = AUC (0 to t) in fasted ICR mouse at 5 mg/kg, IG measured for 24 hrs; type: ADME, organism-based; set-up: dose 5 mg/kg, time 24 hrs, route ig; conditions: in vivo, po
# [6] = Bioavailability in fasted Sprague-Dawley rat at 5 mg/kg, IG measured for 24 hrs; type: ADME, organism-based; conditions: in vivo, po
# [7] = Drug concentration in Sprague-Dawley rat brain at 5 mg/kg, ip measured after 120 mins by LC-MS/MS analysis; type: ADME, organism-based; conditions: read-out: Ct
# [8] = Metabolic stability in mouse liver microsomes assessed as intrinsic clearance at 1 uM incubated for 60 mins in presence of NADPH by LC-MS/MS analysis; type: ADME, Microsome; conditions: read-out: CLH
# [9] = Bioavailability in fasted ICR mouse at 5 mg/kg, IG measured for 24 hrs; type: ADME, organism-based; conditions: in vivo, po
# [10] = Metabolic stability in mouse liver microsomes assessed as half life at 1 uM incubated for 60 mins in presence of NADPH by LC-MS/MS analysis; type: ADME, Microsome
# [11] = Metabolic stability in rat liver microsomes assessed as half life at 1 uM incubated for 60 mins in presence of NADPH by LC-MS/MS analysis; type: ADME, Microsome
# [12] = Metabolic stability in rat liver microsomes assessed as intrinsic clearance at 1 uM incubated for 60 mins in presence of NADPH by LC-MS/MS analysis; type: ADME, Microsome; conditions: read-out: CLH
# [13] = Elimination half life in fasted ICR mouse at 5 mg/kg, IG measured for 24 hrs; type: ADME, organism-based; conditions: in vivo, po, read-out: beta t1/2 (converted)
# [14] = Metabolic stability in dog liver microsomes assessed as half life at 1 uM incubated for 60 mins in presence of NADPH by LC-MS/MS analysis; type: ADME, Canis lupus familiaris, Microsome
# [15] = Drug concentration in Sprague-Dawley rat brain at 5 mg/kg, ip measured after 60 mins by LC-MS/MS analysis; type: ADME, organism-based; conditions: read-out: Ct
# [16] = Cmax in fasted Sprague-Dawley rat at 5 mg/kg, IG measured for 24 hrs; type: ADME, organism-based; set-up: dose 5 mg/kg, time 24 hrs, route ig; conditions: in vivo, po
# [17] = Drug concentration in Sprague-Dawley rat plasma at 5 mg/kg, ip measured after 60 mins by LC-MS/MS analysis; type: ADME, organism-based
# [18] = Ratio of drug concentration in Sprague-Dawley brain to plasma at 5 mg/kg, ip measured after 60 mins by LC-MS/MS analysis; type: ADME, organism-based; conditions: rat, read-out: BPR
# [19] = AUC (0 to t) in fasted Sprague-Dawley rat at 5 mg/kg, IG measured for 24 hrs; type: ADME, organism-based; set-up: dose 5 mg/kg, time 24 hrs, route ig; conditions: in vivo, po
# [20] = Clearance in fasted ICR mouse at 2 mg/kg, iv measured for 24 hrs; type: ADME, organism-based; conditions: in vivo
# [21] = Drug concentration in Sprague-Dawley rat plasma at 5 mg/kg, ip measured after 15 mins by LC-MS/MS analysis; type: ADME, organism-based
# [22] = Cmax in fasted Sprague-Dawley rat at 1 mg/kg, iv measured for 24 hrs; type: ADME, organism-based; set-up: dose 1 mg/kg, time 24 hrs, route iv; conditions: Sprague-Dawley, in vivo, read-out: Cmax
# [23] = Cmax in fasted ICR mouse at 2 mg/kg, iv measured for 24 hrs; type: ADME, organism-based; set-up: time 24 hrs, dose 2 mg/kg, route iv; conditions: in vivo
# [24] = AUC (0 to t) in fasted ICR mouse at 2 mg/kg, iv measured for 24 hrs; type: ADME, organism-based; set-up: dose 2 mg/kg, time 24 hrs, route iv; conditions: in vivo
# [25] = Elimination half life in fasted Sprague-Dawley rat at 5 mg/kg, IG measured for 24 hrs; type: ADME, organism-based; conditions: in vivo, po, read-out: beta t1/2 (converted)
# [26] = Ratio of drug concentration in Sprague-Dawley brain to plasma at 5 mg/kg, ip measured after 120 mins by LC-MS/MS analysis; type: ADME, organism-based; conditions: rat, read-out: BPR
# [27] = Ratio of drug concentration in Sprague-Dawley brain to plasma at 5 mg/kg, ip measured after 15 mins by LC-MS/MS analysis; type: ADME, organism-based; conditions: rat, read-out: BPR
# [28] = Metabolic stability in human liver microsomes assessed as half life at 1 uM incubated for 60 mins in presence of NADPH by LC-MS/MS analysis; type: ADME, Microsome
# [29] = Elimination half life in fasted Sprague-Dawley rat at 1 mg/kg, iv measured for 24 hrs; type: ADME, organism-based; conditions: in vivo, read-out: beta t1/2 (converted)
# [30] = Metabolic stability in human liver microsomes assessed as intrinsic clearance at 1 uM incubated for 60 mins in presence of NADPH by LC-MS/MS analysis; type: ADME, Microsome; conditions: read-out: CLH
# [31] = Metabolic stability in dog liver microsomes assessed as intrinsic clearance at 1 uM incubated for 60 mins in presence of NADPH by LC-MS/MS analysis; type: ADME, Canis lupus familiaris, Microsome; conditions: read-out: CLH
# [32] = Volume of distribution at steady state in fasted Sprague-Dawley rat at 1 mg/kg, iv measured for 24 hrs; type: ADME, organism-based; conditions: in vivo, read-out: Vdss
# [33] = AUC (0 to t) in fasted Sprague-Dawley rat at 1 mg/kg, iv measured for 24 hrs; type: ADME, organism-based; set-up: dose 1 mg/kg, time 24 hrs, route iv; conditions: in vivo
# [34] = Volume of distribution at steady state in fasted ICR mouse at 2 mg/kg, iv measured for 24 hrs; type: ADME, organism-based; conditions: in vivo, read-out: Vdss
# [35] = Cmax in fasted ICR mouse at 5 mg/kg, IG measured for 24 hrs; type: ADME, organism-based; set-up: dose 5 mg/kg, time 24 hrs, route ig; conditions: in vivo, po
# [36] = target: T1, Amine oxidase [flavin-containing] A (Homo sapiens, UniProt P21397); assay: Inhibition of recombinant human MAO-A expressed in Sf9 cells using […] as substrate preincubated for 15 mins followed by substrate addition and measured after 60 mins by luciferin based luminescence analysis
# T1 sequence (P21397 whole entry): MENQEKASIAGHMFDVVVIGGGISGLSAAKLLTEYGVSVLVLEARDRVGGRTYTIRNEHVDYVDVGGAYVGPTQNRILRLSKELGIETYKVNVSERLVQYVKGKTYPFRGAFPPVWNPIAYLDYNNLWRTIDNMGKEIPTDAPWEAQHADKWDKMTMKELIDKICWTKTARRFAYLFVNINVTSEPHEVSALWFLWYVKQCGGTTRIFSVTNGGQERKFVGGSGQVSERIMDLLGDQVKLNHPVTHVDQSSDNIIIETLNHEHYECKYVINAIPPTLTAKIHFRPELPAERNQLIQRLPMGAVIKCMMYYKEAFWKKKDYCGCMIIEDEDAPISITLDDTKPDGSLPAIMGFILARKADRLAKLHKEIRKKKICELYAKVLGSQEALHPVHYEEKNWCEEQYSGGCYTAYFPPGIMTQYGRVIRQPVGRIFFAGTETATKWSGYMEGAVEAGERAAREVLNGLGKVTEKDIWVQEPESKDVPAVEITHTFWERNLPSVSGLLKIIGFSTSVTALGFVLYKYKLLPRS
# [37] = target: T2, Amine oxidase [flavin-containing] B (Homo sapiens, UniProt P27338); assay: Inhibition of recombinant human MAO-B expressed in Sf9 cells using p-tyramine as substrate preincubated for 15 mins followed by substrate addition and measured after 60 mins by luciferin based luminescence analysis
# T2 sequence (P27338 whole entry): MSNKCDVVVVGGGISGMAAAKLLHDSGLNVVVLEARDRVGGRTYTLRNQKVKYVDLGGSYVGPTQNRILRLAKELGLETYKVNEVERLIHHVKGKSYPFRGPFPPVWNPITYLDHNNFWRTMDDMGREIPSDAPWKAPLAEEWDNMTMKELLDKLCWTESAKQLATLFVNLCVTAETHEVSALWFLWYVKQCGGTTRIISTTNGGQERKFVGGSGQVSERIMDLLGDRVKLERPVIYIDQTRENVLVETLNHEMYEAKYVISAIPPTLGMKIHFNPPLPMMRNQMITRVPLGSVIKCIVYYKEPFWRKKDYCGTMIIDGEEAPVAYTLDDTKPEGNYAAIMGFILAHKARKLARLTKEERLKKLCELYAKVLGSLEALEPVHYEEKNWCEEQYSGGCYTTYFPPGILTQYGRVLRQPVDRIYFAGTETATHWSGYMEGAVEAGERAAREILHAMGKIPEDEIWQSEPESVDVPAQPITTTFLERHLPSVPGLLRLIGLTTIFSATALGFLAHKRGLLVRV
smiles,measurement,setting,value
C[C@H](NCc1ccc(OCc2cccc(F)c2)cc1)C(N)=O [SAFINAMIDE],concentration at 0.25 h,[1],3960 ng/g
same,clearance,[2],70.6 mL/min/kg
same,half-life,[3],1.59 h
same,concentration at 2 h,[4],144 ng/mL
same,AUC(0-t) at 24 h,[5],3050 ng·h/mL
same,bioavailability,[6],48.5%
same,concentration at 2 h,[7],2170 ng/g
same,CLint scaled at 1 µM,[8],43.2 mL/min/kg
same,bioavailability,[9],129%
same,half-life at 1 µM,[10],1.1 h
same,half-life at 1 µM,[11],0.331 h
same,CLint scaled at 1 µM,[12],38.3 mL/min/kg
same,half-life,[13],2.78 h
same,half-life at 1 µM,[14],1.1 h
same,concentration at 1 h,[15],5100 ng/g
same,Cmax,[16],148 ng/mL
same,concentration at 1 h,[17],353 ng/mL
same,Kp at 1 h,[18],14.4
same,AUC(0-t) at 24 h,[19],536 ng·h/mL
same,clearance,[20],34.7 mL/min/kg
same,concentration at 0.25 h,[21],371 ng/mL
same,Cmax,[22],244 ng/mL
same,Cmax,[23],429 ng/mL
same,AUC(0-t) at 24 h,[24],930 ng·h/mL
same,half-life,[25],2.62 h
same,Kp at 2 h,[26],15.1
same,Kp at 0.25 h,[27],10.7
same,half-life at 1 µM,[28],8.94 h
same,half-life,[29],1.18 h
same,CLint scaled at 1 µM,[30],2.8 mL/min/kg
same,CLint scaled at 1 µM,[31],43.2 mL/min/kg
same,Vd,[32],5.26 L/kg
same,AUC(0-t) at 24 h,[33],233 ng·h/mL
same,Vd,[34],4.53 L/kg
same,Cmax,[35],755 ng/mL
C[C@H](NCc1ccc2oc(-c3cccc(F)c3)cc2c1)C(N)=O,IC50,[36],4.94 µM
same,IC50,[37],2.25 µM
COc1ccccc1-c1cc2cc(CN[C@@H](C)C(N)=O)ccc2o1,IC50,[36],6.21 µM
same,IC50,[37],9.49 µM
NC(=O)[C@@H]1CCN1Cc1ccc2oc(-c3ccc(F)cc3)cc2c1,clearance,[2],102 mL/min/kg
same,IC50,[36],> 10 µM
same,bioavailability,[6],80.9%
same,IC50,[37],0.038 µM
same,Cmax,[16],161 ng/mL
same,AUC(0-t) at 24 h,[19],623 ng·h/mL
same,Cmax,[22],213 ng/mL
same,half-life,[25],3.92 h
same,half-life,[29],0.482 h
same,Vd,[32],8.53 L/kg
same,AUC(0-t) at 24 h,[33],161 ng·h/mL
COc1ccc(-c2cc3cc(CN4CC[C@H]4C(N)=O)ccc3o2)cc1,IC50,[36],> 10 µM
same,IC50,[37],7.39 µM
COc1cccc(-c2cc3cc(CN[C@@H](C)C(N)=O)ccc3o2)c1,IC50,[36],5.91 µM
same,IC50,[37],4.55 µM
COc1ccc(-c2cc3cc(CN[C@@H](C)C(N)=O)ccc3o2)cc1,IC50,[36],2.78 µM
same,IC50,[37],> 10 µM
NC(=O)[C@@H]1CCN1Cc1ccc2oc(-c3cccc(F)c3)cc2c1,clearance,[2],87.9 mL/min/kg
same,IC50,[36],4.91 µM
same,bioavailability,[6],56.3%
same,IC50,[37],0.086 µM
same,Cmax,[16],185 ng/mL
same,AUC(0-t) at 24 h,[19],527 ng·h/mL
same,Cmax,[22],204 ng/mL
same,half-life,[25],1.06 h
same,half-life,[29],0.783 h
same,Vd,[32],4.96 L/kg
same,AUC(0-t) at 24 h,[33],188 ng·h/mL
